Results on five compounds are retold here after ChEMBL document CHEMBL1201862, “PubChem BioAssay data set” (2004).

What all share (assay type): functional
Assay [1] can be described thus: THP-1 cell cytotoxicity, cytotoxicity control, set 5 (AID 588443).
In assay [2] the target is T1, High affinity choline transporter 1 (Homo sapiens, UniProt Q9GZV3).
T1 sequence (Q9GZV3 whole entry): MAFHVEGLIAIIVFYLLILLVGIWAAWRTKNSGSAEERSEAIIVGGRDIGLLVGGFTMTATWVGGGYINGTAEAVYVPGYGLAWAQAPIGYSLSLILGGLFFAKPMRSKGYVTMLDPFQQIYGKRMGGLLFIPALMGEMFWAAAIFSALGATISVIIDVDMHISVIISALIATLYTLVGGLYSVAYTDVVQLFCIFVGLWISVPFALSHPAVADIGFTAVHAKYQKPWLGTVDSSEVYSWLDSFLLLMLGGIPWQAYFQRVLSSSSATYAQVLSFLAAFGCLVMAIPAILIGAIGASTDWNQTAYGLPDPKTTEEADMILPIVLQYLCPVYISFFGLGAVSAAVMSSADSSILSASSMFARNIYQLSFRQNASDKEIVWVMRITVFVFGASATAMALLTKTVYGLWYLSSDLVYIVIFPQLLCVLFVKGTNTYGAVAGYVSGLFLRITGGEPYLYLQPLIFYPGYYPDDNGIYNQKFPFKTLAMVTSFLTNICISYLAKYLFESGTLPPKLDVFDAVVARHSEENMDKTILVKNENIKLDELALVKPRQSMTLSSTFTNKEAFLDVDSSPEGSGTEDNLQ
Description: human choline transporter blockers, potency – cell-based, 10-point CRC, membrane potential dye, dose response (AID 588401).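 Note: membrane potential dye fluorescence of choline-evoked depolarization via CHT.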

Assay [3] has as its target T1, High affinity choline transporter 1. Description: human choline transporter blockers, potency – cell-based, 5-point CRC, membrane potential dye, dose response (AID 504840).
Assay [4] deals with Multidrug resistance protein CDR2 (Candida albicans (strain SC5314 / ATCC MYA-2876) (Yeast), UniProt P78595). Description: inhibition of Nile Red efflux via Candida CDR2 – S. cerevisiae AD1-8u, singleplex, Cherry Pick1 hits, dose response (AID 588604).
In assay [5] the target is T2, Apoptotic protease-activating factor 1 (Homo sapiens, UniProt O14727).
T2 sequence (O14727 whole entry): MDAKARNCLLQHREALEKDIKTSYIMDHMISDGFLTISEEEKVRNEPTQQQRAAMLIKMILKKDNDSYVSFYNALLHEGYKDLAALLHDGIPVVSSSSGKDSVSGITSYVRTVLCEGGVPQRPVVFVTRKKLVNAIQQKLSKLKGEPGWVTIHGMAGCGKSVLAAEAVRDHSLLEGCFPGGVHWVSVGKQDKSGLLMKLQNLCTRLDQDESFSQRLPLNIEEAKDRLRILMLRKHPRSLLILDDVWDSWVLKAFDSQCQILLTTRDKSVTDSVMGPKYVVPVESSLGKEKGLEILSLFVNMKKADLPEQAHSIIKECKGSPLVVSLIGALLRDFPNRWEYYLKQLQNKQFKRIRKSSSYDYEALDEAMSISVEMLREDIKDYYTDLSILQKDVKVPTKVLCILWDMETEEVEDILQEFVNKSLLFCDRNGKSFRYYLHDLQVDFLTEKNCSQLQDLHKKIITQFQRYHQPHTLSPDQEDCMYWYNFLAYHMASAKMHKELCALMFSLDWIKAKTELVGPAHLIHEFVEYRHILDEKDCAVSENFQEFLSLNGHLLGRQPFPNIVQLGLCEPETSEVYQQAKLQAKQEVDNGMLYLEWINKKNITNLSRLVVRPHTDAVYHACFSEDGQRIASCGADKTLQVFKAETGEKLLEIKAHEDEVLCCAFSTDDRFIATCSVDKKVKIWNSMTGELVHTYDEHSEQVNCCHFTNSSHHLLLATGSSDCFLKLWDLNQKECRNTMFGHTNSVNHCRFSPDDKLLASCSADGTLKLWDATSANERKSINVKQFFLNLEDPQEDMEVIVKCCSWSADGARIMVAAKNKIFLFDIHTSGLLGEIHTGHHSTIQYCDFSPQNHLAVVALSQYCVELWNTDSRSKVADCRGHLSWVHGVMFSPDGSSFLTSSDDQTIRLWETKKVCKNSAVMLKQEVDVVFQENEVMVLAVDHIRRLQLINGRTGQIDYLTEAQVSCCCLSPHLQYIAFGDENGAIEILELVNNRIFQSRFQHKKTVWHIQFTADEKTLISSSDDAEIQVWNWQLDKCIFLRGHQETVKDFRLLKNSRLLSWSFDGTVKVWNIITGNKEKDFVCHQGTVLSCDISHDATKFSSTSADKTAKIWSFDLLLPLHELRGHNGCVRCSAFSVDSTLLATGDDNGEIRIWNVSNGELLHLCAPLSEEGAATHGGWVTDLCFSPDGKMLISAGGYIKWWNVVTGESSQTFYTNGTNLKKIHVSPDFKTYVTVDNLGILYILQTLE
Put plainly: SAR analysis of small molecule inhibitors of Apaf-1 in a Fluorescent assay. As to conditions: read-out: IC50_Mean.

Assay [6] addresses T3, Neuropeptides B/W receptor type 1 (Homo sapiens, UniProt P48145).
T3 sequence (P48145 whole entry): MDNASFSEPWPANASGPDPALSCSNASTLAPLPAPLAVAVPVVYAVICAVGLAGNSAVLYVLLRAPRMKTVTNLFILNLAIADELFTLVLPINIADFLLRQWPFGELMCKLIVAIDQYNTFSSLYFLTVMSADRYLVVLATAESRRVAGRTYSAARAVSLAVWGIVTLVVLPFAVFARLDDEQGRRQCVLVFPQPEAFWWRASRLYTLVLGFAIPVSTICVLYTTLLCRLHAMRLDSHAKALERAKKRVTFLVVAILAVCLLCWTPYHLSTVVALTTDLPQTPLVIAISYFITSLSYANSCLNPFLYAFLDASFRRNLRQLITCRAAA
Put plainly: human NPBW1 receptor blockade, IC50 – cell-based, fluorescence, dose response, set 6, late-stage follow-up (AID 588583).

Assay [7] concerns the target Melanin-concentrating hormone receptor 1 (Homo sapiens, UniProt Q99705). Description: Late-stage fluorescence-based counterscreen for antagonists of the G-protein coupled receptor 7 (GPR7): cell-based dose response assay to identify antagonists of the melanin-concentrating hormone receptor 1 (MCHR1) Set 6. A general note: A counterscreen serves to expose hits that act by an unwanted route or on another target.

Active and inactive are the calls of the source.

Chain of Melanin-concentrating hormone receptor 1 (Q99705 whole entry): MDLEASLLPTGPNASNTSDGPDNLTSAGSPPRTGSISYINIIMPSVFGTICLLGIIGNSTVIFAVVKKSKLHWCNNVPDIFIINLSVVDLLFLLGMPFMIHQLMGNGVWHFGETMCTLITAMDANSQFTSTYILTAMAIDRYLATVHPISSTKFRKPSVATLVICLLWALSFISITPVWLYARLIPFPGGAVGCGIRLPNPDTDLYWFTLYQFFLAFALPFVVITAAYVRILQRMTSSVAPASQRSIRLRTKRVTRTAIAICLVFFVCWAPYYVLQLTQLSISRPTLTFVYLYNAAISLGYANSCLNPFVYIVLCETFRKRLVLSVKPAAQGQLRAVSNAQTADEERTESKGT
Chain of Multidrug resistance protein CDR2 (P78595 whole entry): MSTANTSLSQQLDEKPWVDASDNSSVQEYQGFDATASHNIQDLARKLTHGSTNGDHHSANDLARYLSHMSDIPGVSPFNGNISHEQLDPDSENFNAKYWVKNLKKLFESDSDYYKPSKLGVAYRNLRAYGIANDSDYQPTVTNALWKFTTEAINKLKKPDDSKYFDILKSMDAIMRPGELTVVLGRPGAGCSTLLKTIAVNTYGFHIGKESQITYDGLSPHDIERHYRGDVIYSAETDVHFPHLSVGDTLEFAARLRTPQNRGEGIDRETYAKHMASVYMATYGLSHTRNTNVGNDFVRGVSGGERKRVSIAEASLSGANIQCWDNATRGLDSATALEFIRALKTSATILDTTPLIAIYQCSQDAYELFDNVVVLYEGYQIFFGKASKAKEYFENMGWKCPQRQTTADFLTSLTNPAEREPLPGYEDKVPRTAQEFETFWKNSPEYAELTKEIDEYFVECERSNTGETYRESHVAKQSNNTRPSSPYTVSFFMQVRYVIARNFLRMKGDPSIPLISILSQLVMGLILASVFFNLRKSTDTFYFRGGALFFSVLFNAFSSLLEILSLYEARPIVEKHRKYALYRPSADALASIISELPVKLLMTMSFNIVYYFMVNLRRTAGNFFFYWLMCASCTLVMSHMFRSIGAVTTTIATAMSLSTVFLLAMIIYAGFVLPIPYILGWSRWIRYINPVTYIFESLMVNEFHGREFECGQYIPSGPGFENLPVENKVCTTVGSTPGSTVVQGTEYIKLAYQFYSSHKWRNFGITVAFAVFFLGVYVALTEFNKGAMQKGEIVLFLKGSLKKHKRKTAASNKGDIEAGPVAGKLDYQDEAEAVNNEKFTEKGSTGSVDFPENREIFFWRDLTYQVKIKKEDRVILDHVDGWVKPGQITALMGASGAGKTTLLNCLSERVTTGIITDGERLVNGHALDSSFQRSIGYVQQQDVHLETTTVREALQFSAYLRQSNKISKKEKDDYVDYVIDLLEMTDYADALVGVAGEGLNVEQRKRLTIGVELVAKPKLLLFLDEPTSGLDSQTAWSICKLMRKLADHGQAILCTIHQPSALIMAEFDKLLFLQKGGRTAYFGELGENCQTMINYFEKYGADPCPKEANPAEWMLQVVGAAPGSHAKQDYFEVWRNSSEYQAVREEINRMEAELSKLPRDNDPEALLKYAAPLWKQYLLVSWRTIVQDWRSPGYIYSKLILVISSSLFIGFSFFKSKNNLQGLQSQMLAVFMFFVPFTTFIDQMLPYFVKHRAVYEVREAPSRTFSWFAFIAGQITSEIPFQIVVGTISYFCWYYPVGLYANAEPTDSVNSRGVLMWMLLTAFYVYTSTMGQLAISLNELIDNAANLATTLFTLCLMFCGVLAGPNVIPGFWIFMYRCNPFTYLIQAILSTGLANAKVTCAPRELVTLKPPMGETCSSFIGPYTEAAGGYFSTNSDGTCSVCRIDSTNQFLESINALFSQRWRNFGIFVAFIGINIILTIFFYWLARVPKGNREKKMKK

Broadly, the CC50 is the concentration giving 50% cytotoxicity. On to `CC(C)OC(=O)CSc1ncnc2c1cnn2-c1ccccc1`, for which the CC50 in assay [1] was > 100 µM (active).

Regarding `CC(C)CC(=O)N=c1nc(S)ss1`, the IC50 in assay [2] is 3.98 µM (active); in assay [3] it was 3.02 µM (active). As usually defined, the EC50 is the concentration that produces a half-maximal response. In the case of `COc1cccc(-c2sc3ccc(OC)cc3c2-c2ccc(OCCN3CCCC3)cc2)c1`, the concentration giving a half-maximal response (EC50) in assay [4] was 10.2 µM (active). Consider `O=C(Nc1ccc2c(c1)C(=O)NC2=O)c1nc2ccccc2s1`, for which the IC50 in assay [5] was > 100 µM (inactive). On to `N#CC(c1ccc(F)cc1)c1c(Cl)cnn(Cc2cccc3ccccc23)c1=O` (configuration not stated), for which the IC50 in assay [6] and in assay [7] was 0.154 µM (active) throughout.
